Measured values: patent publication US11541029B2, “High penetration compositions and their applications” (Techfields Pharma Co., Ltd., priority 2008, dated 2023)
In brackets after ≈: the same amount, converted by molar mass. Structures can show the parent of a compound that is named as a salt. Where two headings read alike, the source gives them in different places.

Columns and labels:
[1] = In vitro penetration rate through human skin, Franz cells; format: in vitro ADME
Experimental: Penetration rates of HPCs through human skin were measured in vitro by Franz cells. A Franz cell has two chambers, a top sample chamber and a bottom receptor chamber.
Test compounds were diethylaminoethyl N-acetyl-3-(3,4-diacetyloxy-phenyl-L-alanine ester.HCl salt (A), diethylaminopropyl N-acetyl-D-3,5,3′,5′-tetraiodothyronine.HCl salt(B), 1-piperidineethyl 2-[4-(4-chlorobenzoyl)phenoxy]-2-methyl-propinate. HCl salt(C), 3-piperidinemethyl 5-(2,5-dimethylphenoxy)-2,2-dimethylpentanoate.HCl salt(D), diethylaminoethyl (S)-3-(benzoylaminomethyl)-5-methylhexanoate.HCl salt(E), N-acetyl-3-(3,4-diacetyloxy-phenyl-L-alanine(F) sodium salt, N-acetyl-D-3,5,3′,5′-tetraiodothyronine sodium salt(G), 2-[4-(4-chlorobenzoyl)phenoxy]-2-methyl-propinic acid sodium salt(H), 5-(2,5-dimethylphenoxy)-2,2-dimethylpentanoic acid sodium salt(I), and (S)-3-(benzoylaminomethyl)-5-methylhexanoic acid sodium salt(J).
10% solution of the test compound in water was used. The amount of a HPC or its parent drug penetrating a skin was determined by high-performance liquid chromatography method. The results were shown in FIG. 8 and apparent flux values of the HPCs and their corresponding parent drugs were summarized in Table 2.

[2] = tested on: methicillin-resistant Staphylococcus aureus (MRSA); test: Minimum inhibitory concentrations (MICs); format: cell-based
Experimental: Minimum inhibitory concentrations (MICs) of the antimicrobials and their HPCs were assessed according to Jennifer M. Andrews, Journal of Antimicrobial Chemotherapy 48, suppl. S1, 5-16 (2001). […] The test compounds are: 6-phenoxyacetacetamidopenicillanic acid 1-piperidineethyl ester hydrochloride (penicillin V-PEE), penicillin V, 6-(2,6-dimethoxybenzamido)penicillinic acid 2-pyrrolidinemethyl ester hydrochloride (methicillin-PME), methicillin, 7-[[(2-acetylamino-4-thiazolyl)(methoxyimino)acetyl]amino]-8-oxo-5-thia-1-azabicyclo[4.2.0]oct-2-ene-2-carboxylic acid 2-diethylaminoethyl ester hydrochloride (ceftizoxime-DEE), and ceftizoxime).

[3] = tested on: lesions similar to psoriasis generated by Malassezia; test: Anti-psoriasis activity, Malassezia-induced lesions; format: in vivo, Chinese white rabbits; details: HPC 5% aq. applied to the lesion areas twice per day
Experimental: Heavy suspensions of Malassezia [Rosenberg, E. W., et al., Mycopathologia, 72, 147-154 (1980)] were applied to the shaved skin on the backs of Chinese white rabbits (n=4×6) twice (at […]) per day for 2 weeks to generate lesions similar to psoriasis. HPCs (5%, aq.) were applied to the same areas 3 hours (10 am and 6 pm) after the application of Malassezia (7 am and 3 pm). […] HCl, diethylaminoethyl 1,8-diethyl-1,3,4,9-tetrahydropyrano-[3,4-b]indole-1-acetate.HCl, diethylaminoethyl 2-amino-3-(4-bromo-benzoyl)benzeneacetate.HCl, diethylaminoethyl 3-chloro-4-(2-propenyloxy)benzeneacetate. HCl, diethylaminoethyl 1-(4-chlorobenzoyl-5-methoxy-2-methyl-1H-indole-3-acetoxyacetate. HCl, diethylaminoethyl 4-(4-chlorophenyl)-2-phenyl-5-thiazoleacetate.HCl, and diethylaminoethyl 3-(4-chlorophenyl)-1-phenyl-1H-pyrazole-4-acetate.HCl

[4] = tested on: Human colon cancer cells (LS174J); test: Human colon cancer xenograft in nude mice
Description: Human colon cancer cells (LS174J, 2-3 mm^3 of tumor tissue was used in each mouse) were subcutaneously xenografted into nude mice (BALB).

[5] = tested on: Human breast cancer cells (BCAP-37); test: Human breast cancer xenograft in nude mice
Experimental: Human breast cancer cells (BCAP-37, 2-3 mm^3 of tumor tissue was used in each mouse) were subcutaneously xenografted into nude mice (BALB, 12 groups, 7 mice each group). […] 50 μl of 5% (equal to 2.5 mg of the HPCs) diethylaminoethyl acetylsalicylate.HCl (P-1, in pure water); 1-piperidinepropyl 2[(2,6-dichlorophenyl)amino]benzene acetate.HCl (P-2, in water), 1-pyrrolidinepropyl 2-(3-benzoylphenyl) propionate.HCl (P-3, in water), 4-piperidinemethyl 2-(3-phenoxyphenyl)propionate.HCl (P-4, in water), 3-piperidinemethyl 2-(ρ-isobutylphenyl) propionate.HCl (P-5, in water), diethylaminoethyl 1-(p-chlorobenzoyl)-5-methoxy-2-methylindole 3-acetate.HCl (P-11, in water), 2-(4-morpholinyl)ethyl (Z)-5-fluoro-2-methyl-1-[(4-methylsulfinyl)phenylmethylene]-1H-indene-3-acetate.

Hypertension patients = test: Anti-hypertensive effect of transdermal atenolol HCl salt in patients; format: in vivo, human
Experimental: 20 Hypertension patents were divided to 2 groups. Group A was control group (n=10, 1 ml of water was administrated to the chest of patients once per day) and group B was atenolol treated group (n=10, 100 mg of atenolol HCl salt was administrated to the chest of patients once per day).

[6] = tested on: MPTP-induced Parkinson's disease mice; test: Anti-Parkinson's disease activity in MPTP-induced mice; details: mouse, in vivo
Experimental: Group A mice were ip injected 0.4% sodium carboxymethylcellulos (15 ml/kg per day) for 7 days. Group B and C mice were ip injected N-methyl-4-phenyl-1,2,3,6-tetrahydropyridine (MPTP, 30 mg/kg per day) for 7 days. The mice were divided into 2 groups. […] All mice were killed after the last treatment and the brain tissues were quickly freezed at −80° C. […] The contents of malondialdehyde (MDA) in the SN were measured with the thiobarbituric acid-reaction to indicate the LPO, and contents of glutathione (GSH) in the substantia nigra (SN) were based on the dithionitrobenzonic acid (DTNB) determination. The contents of GABA and Glu in the striatum and SN were shown by high performance amino acid auto-analyser.

[7] = 10% solution in water, human skin 360-400 μm, Franz cells
[8] = about 50 μl of 5% topically every 12 hours
[9] = 100 mg to the chest once per day, n=10

SMILES: Cc1ccc(C)c(OCCCC(C)(C)C(=O)[O-])c1.[Na+] [5-(2,5-dimethylphenoxy)-2,2-dimethylpentanoic acid sodium salt, reference compound]
- apparent flux (in vitro penetration rate) ([1]; human, 10 % solution in water): 1 μg/cm^2/h

SMILES: CC(C)C[C@H](CNC(=O)c1ccccc1)CC(=O)[O-].[Na+] [(S)-3-(benzoylaminomethyl)-5-methylhexanoic acid sodium salt, reference compound]
- apparent flux (in vitro penetration rate) [1, 7]: 1 μg/cm^2/h

SMILES: COc1cccc(OC)c1C(=O)NC1C(=O)N2C1SC(C)(C)C2C(=O)OCC1CCCN1.Cl (stereo not shown) [methicillin-PME, 6-(2,6-dimethoxybenzamido)penicillinic acid 2-pyrrolidinemethyl ester hydrochloride]
- MIC [2]: 19 µg/mL

SMILES: CCN(CC)CCOC(=O)Cc1sc(-c2ccccc2)nc1-c1ccc(Cl)cc1.Cl [diethylaminoethyl 4-(4-chlorophenyl)-2-phenyl-5-thiazoleacetate.HCl]
- time until lesions healed after the application [3]: 10 days

SMILES: CC1(C)S[C@@H]2[C@H](NC(=O)COc3ccccc3)C(=O)N2[C@H]1C(=O)O [penicillin V, reference compound]
- MIC [2]: 1824 µg/mL (≈ 5.21 mM)

SMILES: CO/N=C(\C(=O)N[C@@H]1C(=O)N2C(C(=O)O)=CCS[C@H]12)c1csc(N)n1 [ceftizoxime, reference compound]
- MIC ([2]; read-out: MIC): 986 µg/mL (≈ 2.57 mM)

SMILES: CC(C)(Oc1ccc(C(=O)c2ccc(Cl)cc2)cc1)C(=O)OCCN1CCCCC1.Cl [1-piperidineethyl 2-[4-(4-chlorobenzoyl)phenoxy]-2-methyl-propinate. HCl salt]
- apparent flux (in vitro penetration rate) [1]: 590 μg/cm^2/h

SMILES: Cc1ccc(C)c(OCCCC(C)(C)C(=O)OCC2CCCNC2)c1.Cl (stereo not shown) [3-piperidinemethyl 5-(2,5-dimethylphenoxy)-2,2-dimethylpentanoate.HCl salt]
- apparent flux (in vitro penetration rate) [1]: 400 μg/cm^2/h

SMILES: CCN(CC)CCOC(=O)Cc1cc(C)c(C(=O)c2ccc(Cl)cc2)n1C.Cl [diethylaminoethyl 5-(4-Chlorobenzoyl)-1,4-dimethyl-1H-pyrrole-2-acetate. HCl]
- time until lesions healed after the application [3]: 10 days

SMILES: CCN(CC)CCCOC(=O)[C@@H](Cc1cc(I)c(Oc2cc(I)c(O)c(I)c2)c(I)c1)NC(C)=O.Cl [diethylaminopropyl N-acetyl-D-3,5,3′,5′-tetraiodothyronine.HCl salt]
- apparent flux (in vitro penetration rate) [1]: 480 μg/cm^2/h

SMILES: CC(C)Cc1ccc(C(C)C(=O)OCC2CCCNC2)cc1.Cl (stereo not shown) [P-5, 3-piperidinemethyl 2-(ρ-isobutylphenyl) propionate.HCl]
- time until lesions healed after the application [3]: 10 days
- tumor Size at day 30 [4, 8]: 520 ± 140 mm^3
- Weight of mice at day 30 ([4]; in vivo): 23 ± 2
- tumor Size at day 42 ([5]; 50 μl of 5% topically every 8 hours): 180 ± 55 mm^3
- Weight of mice at day 42 ([5]; in vivo): 23 ± 2

SMILES: CCN(CC)CCOC(=O)Cc1ccc(C(=O)c2ccc(C)cc2)n1C.Cl [P-13, diethylaminoethyl 1-methyl-5-(4-methylbenzoyl)-1H-pyrrole-2-acetate.HCl]
- time until lesions healed after the application [3]: 10 days
- Weight of mice at day 30 [4, 8]: 23 ± 3
- tumor Size at day 30 [4, 8]: 690 ± 250 mm^3

SMILES: CCN(CC)CCOC(=O)Cc1cccc(C(=O)c2ccc(Br)cc2)c1N.Cl [diethylaminoethyl 2-amino-3-(4-bromo-benzoyl)benzeneacetate.HCl]
- time until lesions healed after the application [3]: 10 days

SMILES: CC(C)(Oc1ccc(C(=O)c2ccc(Cl)cc2)cc1)C(=O)[O-].[Na+] [2-[4-(4-chlorobenzoyl)phenoxy]-2-methyl-propinic acid sodium salt, reference compound]
- apparent flux (in vitro penetration rate) [1]: 1 μg/cm^2/h

SMILES: CC(=O)N[C@@H](Cc1ccc(OC(C)=O)c(OC(C)=O)c1)C(=O)[O-].[Na+] [N-acetyl-3-(3,4-diacetyloxy-phenyl-L-alaninesodium salt, reference compound]
- apparent flux (in vitro penetration rate) [1]: 1 μg/cm^2/h

SMILES: CC(C)NCC(O)COc1ccc(CC(N)=O)cc1 (stereo not shown) [atenolol HPC, atenolol HCl salt]
- side effect (Hypertension patients; 100 mg in 1 ml of pure water per day transdermally): without side effect of hypotention
- Blood Pressure (before treatment), first figure of the pair (Hypertension patients; [9]): 160 ± 22 mmHg
- Blood Pressure (before treatment), second figure of the pair (Hypertension patients; [9]): 110 ± 20 mmHg
- Blood pressure (2 weeks after treatment), first figure of the pair (Hypertension patients; [9]): 128 ± 15 mmHg
- Blood pressure (2 weeks after treatment), second figure of the pair (Hypertension patients; [9]): 81 ± 12 mmHg

SMILES: CCN(CC)CCOC(=O)[C@H](Cc1ccc(OC(C)=O)c(OC(C)=O)c1)NC(C)=O.Cl [diethylaminoethyl N-acetyl-3-(3,4-diacetyloxy-phenyl-L-alanine ester.HCl salt]
- apparent flux (in vitro penetration rate) [1]: 550 μg/cm^2/h

SMILES: CCN(CC)CCOC(=O)Cc1cn(-c2ccccc2)nc1-c1ccc(Cl)cc1.Cl [diethylaminoethyl 3-(4-chlorophenyl)-1-phenyl-1H-pyrazole-4-acetate.HCl]
- time until lesions healed after the application [3]: 10 days

SMILES: NC(=O)C[S+]([O-])C(c1ccccc1)c1ccccc1 (stereo not shown) [modafinil, reference compound]
- effect on the increase of nigrostriatal Glu release induced by MPTP [6]: did not change the increase of nigrostriatal Glu release induced by MPTP

SMILES: C=CCOc1ccc(CC(=O)OCCN(CC)CC)cc1Cl.Cl [diethylaminoethyl 3-chloro-4-(2-propenyloxy)benzeneacetate. HCl]
- time until lesions healed after the application [3]: 10 days

SMILES: CCN(CC)CCOC(=O)C1=CCSC2C(NC(=O)C(=NOC)c3csc(NC(C)=O)n3)C(=O)N12.Cl (stereo not shown) [ceftizoxime-DEE, 7-[[(2-acetylamino-4-thiazolyl)(methoxyimino)acetyl]amino]-8-oxo-5-thia-1-azabicyclo[4.2.0]oct-2-ene-2-carboxylic acid 2-diethylaminoethyl ester hydrochloride]
- MIC ([2]; read-out: MIC): 2.5 µg/mL

SMILES: CC(=O)N[C@H](Cc1cc(I)c(Oc2cc(I)c(O)c(I)c2)c(I)c1)C(=O)[O-].[Na+] [N-acetyl-D-3,5,3′,5′-tetraiodothyronine sodium salt, reference compound]
- apparent flux (in vitro penetration rate) ([1]; human, 10 % solution in water): 1 μg/cm^2/h

SMILES: CC1(C)SC2C(NC(=O)COc3ccccc3)C(=O)N2C1C(=O)OCCN1CCCCC1.Cl (stereo not shown) [penicillin V-PEE, 6-phenoxyacetacetamidopenicillanic acid 1-piperidineethyl ester hydrochloride]
- MIC [2]: 12 µg/mL

SMILES: CCN(CC)CCOC(=O)COC(=O)Cc1c(C)n(C(=O)c2ccc(Cl)cc2)c2ccc(OC)cc12.Cl [diethylaminoethyl 1-(4-chlorobenzoyl-5-methoxy-2-methyl-1H-indole-3-acetoxyacetate. HCl]
- time until lesions healed after the application [3]: 10 days

SMILES: COc1cccc(OC)c1C(=O)N[C@@H]1C(=O)N2[C@@H]1SC(C)(C)[C@@H]2C(=O)O [methicillin, reference compound]
- MIC ([2]; read-out: MIC): 1160 µg/mL (≈ 3.04 mM)

SMILES: CCN(CC)CCOC(=O)C[C@@H](CNC(=O)c1ccccc1)CC(C)C.Cl [diethylaminoethyl (S)-3-(benzoylaminomethyl)-5-methylhexanoate.HCl salt]
- apparent flux (in vitro penetration rate) [1, 7]: 650 μg/cm^2/h

SMILES: CCc1cccc2c3c([nH]c12)C(CC)(CC(=O)OCCN(CC)CC)OCC3.Cl (stereo not shown) [diethylaminoethyl 1,8-diethyl-1,3,4,9-tetrahydropyrano-[3,4-b]indole-1-acetate.HCl]
- time until lesions healed after the application [3]: 10 days
